Reference: patent publication US20040126823A1, “Modulation of prostaglandin synthesis and cancer growth” (priority 2002, published 2004)

Test system: Tpl2+/+ macrophages
Test: PGE2 levels in LPS treated macrophages (ELISA of culture supernatants)
Format: cell-based, mouse
Conditions: pre-treatment with 20 pM PD98059; Tpl2+/+ macrophages stimulated for 4.5 hrs with LPS
Method: Tpl2+/+ and Tpl2−/− macrophage cultures were stimulated with […] LPS. Culture supernatants collected at 0, 3, 4.5, 6 or 10 hrs were analysed for PGE2 levels by ELISA. Unstimulated Tpl2+/+ and Tpl2−/− macrophage cultures secreted similar levels of PGE2 respectively. PGE2 levels produced by unstimulated cells were given the arbitrary value of 1. The bar graphs show the fold induction of PGE2 (±SD) compared to control untreated cultures.

Q: For COc1cccc(-c2cc(=O)c3ccccc3o2)c1N [PD98059], which PGE2 secretion is on record?
A: inhibited PGE2 secretion
